Tests used:
[1] = molecular target: T1, human A1 AR (Homo sapiens, UniProt P30542); experiment: Radioligand binding at human A1 AR ([3H]NECA, membranes of CHO cells); conditions: for Ki: Example 7, agonist radioligand [3H]45, read-out: AR Affinity Ki, nM, A1
T1 construct: expressed in transfected cells
T1 sequence (P30542 1-326): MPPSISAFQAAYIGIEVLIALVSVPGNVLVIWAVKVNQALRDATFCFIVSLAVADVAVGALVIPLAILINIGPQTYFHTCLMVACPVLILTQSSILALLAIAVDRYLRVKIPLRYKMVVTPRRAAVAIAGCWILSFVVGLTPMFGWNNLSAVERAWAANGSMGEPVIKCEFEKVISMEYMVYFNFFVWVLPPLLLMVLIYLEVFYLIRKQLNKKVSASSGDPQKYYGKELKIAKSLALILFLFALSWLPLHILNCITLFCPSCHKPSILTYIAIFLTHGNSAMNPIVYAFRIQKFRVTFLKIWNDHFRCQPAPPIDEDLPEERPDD
Experimental: (§1) [^3H](2-[p-(2-Carboxyethyl)phenyl-ethylamino]-5′-N-ethylcarboxamido-adenosine) (37, [^3H]CGS21680, 40.5 Ci/mmol) and [^125I]N^6-(4-amino-3-iodobenzyl)adenosine-5′-N-methyluronamide (38, [^125I]I-AB-MECA, 2200 Ci/mmol) were purchased from Perkin-Elmer Life and Analytical Science (Boston, Mass.). Test compounds were prepared as 5 mM stock solutions in DMSO and stored frozen at −20° C.
(§2) CHO cells stably expressing the recombinant hA1 and hA3Rs, and HEK-293 cells stably expressing the hA2AAR were cultured in Dulbecco's modified Eagle medium (DMEM) and F12 (1:1) supplemented with 10% fetal bovine serum, 100 units/mL penicillin, 100 μg/mL streptomycin, and […] glutamine. In addition, 800 μg/mL geneticin was added to the A2A media, while 500 μg/mL hygromycin was added to the A1 and A3 media. After harvesting, cells were homogenized and suspended in PBS. Cells were then centrifuged at 240 g for 5 min, and the pellet was resuspended in 50 mM Tris-HCl buffer (pH 7.5) containing 10 mM MgCl2. The suspension was homogenized and was then ultra-centrifuged at 14,330 g for 30 min at 4° C. The resultant pellets were resuspended in Tris buffer, incubated with adenosine deaminase (3 units/mL) for 30 min at 37° C. The suspension was homogenized with an electric homogenizer for 10 sec, pipetted into 1 mL vials and then stored at −80° C. until the binding experiments were conducted. The protein concentration was measured using the BCA Protein Assay Kit from Pierce Biotechnology, Inc. (Rockford, Ill.).
(§3) Into each tube in the binding assay was added 50 μL of increasing concentrations of the test ligand in Tris-HCl buffer (50 mM, pH 7.5) containing 10 mM MgCl2, 50 μl, of the appropriate agonist radioligand, and finally 100 μL of membrane suspension. For the A1AR (22 μg of protein/tube) the radioligand used was [^3H]36 (final concentration of 3.5 nM). For the A2AAR (20 μg/tube) the radioligand used was [^3H]37 (10 nM). For the A3AR (21 μg/tube) the radioligand used was [^125I]38 (0.34 nM). Nonspecific binding was determined using a final concentration of 10 μM unlabeled 36 diluted with the buffer. The mixtures were incubated at 25° C. for 60 min in a shaking water bath. Binding reactions were terminated by filtration through Brandel GF/B filters under a reduced pressure using a M-24 cell harvester (Brandel, Gaithersburg, Md.). Filters were washed three times with 3 mL of 50 mM ice-cold Tris-HCl buffer (pH 7.5). Filters for A1 and A2AAR binding were placed in scintillation vials containing 5 mL of Hydrofluor scintillation buffer and counted using a Perkin Elmer Liquid Scintillation Analyzer (Tri-Carb 2810TR). Filters for A3AR binding were counted using a Packard Cobra II γ-counter. The Ki values were determined using GraphPad Prism for all assays.
(§4) [^3H](2-[p-(2-carboxyethyl)phenyl-ethylamino]-5′-N-ethylcarboxamido-adenosine) ([^3H]CGS21680, 40.5 Ci/mmol) and [^125I]N^6-(4-amino-3-iodobenzyl)adenosine-5′-N-methyluronamide ([^125I]I-AB-MECA, 2200 Ci/mmol) were purchased from PerkinElmer. Test compounds were prepared as 5-mM stock solutions in DMSO and stored frozen at −20° C.
(§5) Chinese hamster ovary (CHO) cells were generated by stably expressing the recombinant hA1 and hA3 and human embryonic kidney (HEK) 293 cells stably expressing the hA2AAR in DMEM and F12 (1:1) supplemented with 10% fetal bovine serum, 100 units/mL penicillin, 100 μg/mL streptomycin, and 2 μmol/mL glutamine. 800 μg/mL Geneticin were added to the A2A media and 500 μg/mL hygromycin to the A1 and A3 media. After harvesting the cells, they were homogenized with an electric homogenizer for 10 sec, pipetted them into 1-mL vials, and then stored them at −80° C. until the binding experiments were conducted. The protein concentration was measured with a BCA Protein Assay Kit from Pierce Biotechnology (Rockford, Ill.). […]

[2] = molecular target: T2, hA2AAR (Homo sapiens, UniProt P29274); experiment: Radioligand binding at human A2A AR ([3H]CGS21680, membranes of HEK-293 cells)
T2 construct: expressed in transfected cells
Experimental: as §1, §2, §3, §4, §5

[3] = molecular target: T3, human A3AR (Homo sapiens, UniProt P0DMS8); experiment: Radioligand binding at human A3 AR ([125I]I-AB-MECA, membranes of CHO cells); conditions: Example 7; agonist radioligand [125I]47; read-out: AR Affinity Ki, nM, A3
T3 construct: expressed in transfected cells
T3 sequence (P0DMS8 1-318): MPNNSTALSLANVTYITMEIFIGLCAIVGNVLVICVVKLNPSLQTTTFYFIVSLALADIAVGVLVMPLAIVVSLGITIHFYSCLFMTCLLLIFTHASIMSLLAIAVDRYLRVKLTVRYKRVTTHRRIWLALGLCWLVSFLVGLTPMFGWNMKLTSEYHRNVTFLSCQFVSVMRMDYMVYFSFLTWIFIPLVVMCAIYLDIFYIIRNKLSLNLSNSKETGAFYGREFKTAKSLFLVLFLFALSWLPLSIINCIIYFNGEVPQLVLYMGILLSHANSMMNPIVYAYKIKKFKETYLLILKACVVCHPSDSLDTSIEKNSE
Experimental: Test compounds were prepared as 5 mM stock solutions in DMSO and stored frozen at −20° C.
as §2
as §3, with “For the A1AR (22 μg of protein/tube) the radioligand used was [^3H]36 (final concentration of 3.5 nM).” left out, “For the A3AR (21 μg/tube) the radioligand used was [^125I]38 (0.34 nM).” left out, “Filters for A1 and A2AAR binding were placed in scintillation vials containing 5 mL of Hydrofluor scintillation buffer and counted using a Perkin Elmer Liquid Scintillation Analyzer (Tri-Carb 2810TR).” left out
Test compounds were prepared as 5-mM stock solutions in DMSO and stored frozen at −20° C.
Chinese hamster ovary (CHO) cells were generated by stably expressing the recombinant hA1 and hA3 and human embryonic kidney (HEK) 293 cells stably expressing the hA2AAR in DMEM and F12 (1:1) supplemented with 10% fetal bovine serum, 100 units/mL penicillin, 100 μg/mL streptomycin, and 2 μmol/mL glutamine. 800 μg/mL Geneticin were added to the A2A media and 500 μg/mL hygromycin to the A1 and A3 media. After harvesting the cells, they were homogenized with an electric homogenizer for 10 sec, pipetted them into 1-mL vials, and then stored them at −80° C. until the binding experiments were conducted. The protein concentration was measured with a BCA Protein Assay Kit from Pierce Biotechnology (Rockford, Ill.).
Each tube in the binding assay contained 50 μL of increasing concentrations of the test ligand in Tris-HCl buffer (50 mM, pH 7.5) containing 10 mM MgCl2, 50 μL of the appropriate agonist radioligand, and 100 μL membrane suspension, added sequentially. […] For the A2AAR (20 μg/tube), the radioligand [^3H]CGS21680 was used (−10 nM). […] The mixtures were incubated at 25° C. for 60 min in a shaking water bath. The binding reactions were terminated by filtration through Brandel GF/B filters under a reduced pressure with a M-24 cell harvester (Brandel, Gaithersburg, Md.). Filters were washed three times with 3 mL 50-mM ice-cold Tris-HCl buffer (pH 7.5). […] The filters were counted for A3AR binding with a Packard Cobra II γ-counter (PerkinElmer). The Ki values were determined with GraphPad Prism for all assays.

T2 sequence (P29274 whole entry): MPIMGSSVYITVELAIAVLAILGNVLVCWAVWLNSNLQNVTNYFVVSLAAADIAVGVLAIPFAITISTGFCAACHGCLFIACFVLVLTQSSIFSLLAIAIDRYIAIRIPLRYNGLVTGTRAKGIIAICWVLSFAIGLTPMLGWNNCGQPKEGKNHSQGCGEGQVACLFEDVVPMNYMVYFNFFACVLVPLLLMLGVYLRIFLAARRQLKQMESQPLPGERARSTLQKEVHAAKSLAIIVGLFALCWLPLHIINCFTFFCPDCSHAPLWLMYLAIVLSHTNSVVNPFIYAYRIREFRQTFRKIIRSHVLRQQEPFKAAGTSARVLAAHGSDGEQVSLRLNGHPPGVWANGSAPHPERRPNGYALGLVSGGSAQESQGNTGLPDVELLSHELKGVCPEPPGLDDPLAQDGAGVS

Ki [1] | inhibition at 10 µM [2] | Ki [3] | inhibition at 10 µM [1] | Ki ([2]; Example 7, agonist radioligand [3H]46, HEK293, read-out: AR Affinity Ki, nM, A2A) | Compound
2420 ± 230 nM | 28.6% | 71.7 ± 54 nM | – | – | CNC(=O)[C@@]12C[C@@H]1[C@@H](n1cnc3c(NCc4cccc(C#CCCCCc5cn(-c6ccc(F)c([N+](=O)[O-])c6)nn5)c4)nc(Cl)nc31)[C@H](O)[C@@H]2O [Compound 204, (1S,2R,3S,4R,5S)-4-(2-Chloro-6-(3-(6-(1-(4-fluoro-3-nitrophenyl)-1H-1,2,3-triazol-4-yl)hex-1-ynyl)benzylamino)-9H-purin-9-yl)-2,3-dihydroxybicyclo[3.1.0]hexane-1-carboxylic acid-N-methylamide]
– | 16.7% | 897 ± 20 nM | 11% | – | O=[N+]([O-])c1cc(-n2cc(CCCC#Cc3cccc(CNc4nc(Cl)nc5c4ncn5[C@H]4[C@H](O)[C@H](O)[C@@H]5C[C@@H]54)c3)nn2)ccc1F [Compound 214, (1R,2R,3S,4R,5S)-4-(2-Chloro-6-(3-(5-(1-(4-fluoro-3-nitrophenyl)-1H-1,2,3-triazol-4-yl)pent-1-ynyl)benzylamino)-9H-purin-9-yl)-bicyclo[3.1.0]hexane-2,3-diol]
– | 22.5% | 2190 ± 160 nM | 38.6% | – | O[C@@H]1[C@H](O)[C@@H]2C[C@@H]2[C@H]1n1cnc2c(NCc3cn(C45CC6CC(CC(C6)C4)C5)nn3)nc(Cl)nc21 [Compound 224]
5870 ± 830 nM | 28.3% | 302 ± 26 nM | – | – | C#CCNc1nc(Cl)nc2c1ncn2[C@H]1[C@H](O)[C@H](O)[C@@H]2C[C@@H]21 [Compound 222, (1R,2R,3S,4R,5S)-4-(2-Chloro-6-(prop-2-ynylamino)-9H-purin-9-yl) bicycle[3.1.0]hexane-2,3-diol]
– | 8.2% | 933 ± 720 nM | 24.3% | – | O=[N+]([O-])c1cc(-n2cc(CCCCC#Cc3cccc(CNc4nc(Cl)nc5c4ncn5[C@H]4[C@H](O)[C@H](O)[C@@H]5C[C@@H]54)c3)nn2)ccc1F [Compound 215, (1R,2R,3S,4R,5S)-4-(2-Chloro-6-(3-(6-(1-(4-fluoro-3-nitrophenyl)-1H-1,2,3-triazol-4-yl)hex-1-ynyl)benzylamino)-9H-purin-9-yl)-bicyclo[3.1.0]hexane-2,3-diol]
104 ± 24 nM | – | 8.1 ± 3.1 nM | – | 4950 ± 960 nM | C#CCCCC#Cc1cccc(CNc2nc(Cl)nc3c2ncn3[C@H]2[C@H](O)[C@H](O)[C@]3(C(=O)NC)C[C@H]23)c1 [Compound 200, (1S,2R,3S,4R,5S)-4-[2-Chloro-6-{3-(1,6-heptadiynylbenzylamino)}-9H-purin—9-yl]-2,3-dihydroxybicyclo[3.1.0]hexane-1-carboxylic acid N-methylamide]
– | 19.2% | 388 ± 170 nM | 44.7% | – | O=[N+]([O-])c1cc(-n2cc(CNc3nc(Cl)nc4c3ncn4[C@H]3[C@H](O)[C@H](O)[C@@H]4C[C@@H]43)nn2)ccc1F [Compound 223]
– | 44.1% | 2500 ± 640 nM | 48.5% | – | C#CCCCCC#Cc1cccc(CNc2nc(Cl)nc3c2ncn3[C@H]2[C@H](O)[C@H](O)[C@@H]3C[C@@H]32)c1 [Compound 212, (1R,2R,3S,4R,5S)-4-(2-Chloro-6-(3-(octa-1,7-diynyl)benzylamino)-9H-purin-9-yl) bicyclo[3.1.0]hexane-2,3-diol]
1720 ± 240 nM | 17% | 21.8 ± 5.3 nM | – | – | CNC(=O)[C@@]12C[C@@H]1[C@@H](n1cnc3c(NCc4cccc(C#CCCCCc5cn(C67CC8CC(CC(C8)C6)C7)nn5)c4)nc(Cl)nc31)[C@H](O)[C@@H]2O [Compound 206, (1S,2R,3S,4R,5S)-4-(2-Chloro-6-(3-(6-(1-(adamantyl)-1H-1,2,3-triazol-4-yl)hex-1-ynyl)benzylamino)-9H-purin-9-yl)-2,3-dihydroxybicyclo[3.1.0]hexane-1-carboxylic acid-N-methylamide]
1290 ± 290 nM | 25.2% | 30.1 ± 13 nM | – | – | CNC(=O)[C@@]12C[C@@H]1[C@@H](n1cnc3c(NCc4cccc(C#CCCCCCc5cn(-c6ccc(F)c([N+](=O)[O-])c6)nn5)c4)nc(Cl)nc31)[C@H](O)[C@@H]2O [Compound 205, (1S,2R,3S,4R,5S)-4-(2-Chloro-6-(3-(7-(1-(4-fluoro-3-nitrophenyl)-1H-1,2,3-triazol-4-yl)hept-1-ynyl)benzylamino)-9H-purin-9-yl)-2,3-dihydroxybicyclo[3.1.0]hexane-1-carboxylic acid-N-methylamide]
